From the SangsterLogP compilation

SMILES | logP
C/C=C(/C)C(=O)O[C@H]1[C@@H](O)c2c(ccc3ccc(=O)oc23)OC1(C)C | 3.56
COc1c2ccoc2c(OCC=C(C)C)c2oc(=O)ccc12 | 3.86
O=c1cc(O)c2ccccc2o1 | 1.42
COc1cc2ccc(=O)oc2cc1OC | 2.45

The next lines start with the values.

logP | SMILES
4.41 | C/C=C(\C)C(=O)OC1c2c(ccc3ccc(=O)oc23)OC(C)(C)[C@@H]1OC(=O)/C(C)=C/C (stereo not given in full)
3.03 | COc1ccc2ccc(=O)oc2c1CC1OC1(C)C (stereo not given)
3.29 | C/C=C(/C)C(=O)O[C@H]1C[C@@](C)(O)C(=O)[C@@H](OC(=O)/C(C)=C\C)[C@@]2(C)CC[C@@](O)(C(C)C)[C@@H]12
3.16 | COc1ccc2c(C)cc(=O)oc2c1
3.91 | CC(C)=CCOc1ccc2ccc(=O)oc2c1
3.75 | C/C=C(/C)C(=O)O[C@@H]1[C@H](OC(C)=O)c2c(ccc3ccc(=O)oc23)OC1(C)C
